Test results taken from ChEMBL document CHEMBL5143605, “Discovery of 4-phenylindolines containing a (5-cyanopyridin-3-yl)methoxy moiety as potent inhibitors of the PD-1/PD-L1 interaction” (Bioorg Med Chem Lett, 2022).

Target: Programmed cell death protein 1/Programmed cell death 1 ligand 1 (Homo sapiens, UniProt Q15116+Q9NZQ7)
Assay: Inhibition of Tag2-PD1/Tag1-PD-L1 (unknown origin) protein-protein interaction preincubated for 15 mins followed by addition of anti-Tag1-Eu3+ and anti-Tag2-XL665 and measured after 2 hrs by HTRF analysis
Assay type: protein-complex assay

Programmed cell death protein 1/Programmed cell death 1 ligand 1, sequence (Q15116 whole entry): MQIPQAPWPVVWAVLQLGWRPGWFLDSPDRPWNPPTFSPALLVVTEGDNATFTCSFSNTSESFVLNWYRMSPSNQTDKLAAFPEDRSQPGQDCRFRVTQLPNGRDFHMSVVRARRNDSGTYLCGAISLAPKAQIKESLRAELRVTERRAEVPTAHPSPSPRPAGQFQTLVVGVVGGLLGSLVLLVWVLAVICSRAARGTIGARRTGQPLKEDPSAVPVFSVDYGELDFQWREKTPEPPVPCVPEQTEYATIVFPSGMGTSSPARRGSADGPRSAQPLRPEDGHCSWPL
Programmed cell death protein 1/Programmed cell death 1 ligand 1, sequence (Q9NZQ7 whole entry): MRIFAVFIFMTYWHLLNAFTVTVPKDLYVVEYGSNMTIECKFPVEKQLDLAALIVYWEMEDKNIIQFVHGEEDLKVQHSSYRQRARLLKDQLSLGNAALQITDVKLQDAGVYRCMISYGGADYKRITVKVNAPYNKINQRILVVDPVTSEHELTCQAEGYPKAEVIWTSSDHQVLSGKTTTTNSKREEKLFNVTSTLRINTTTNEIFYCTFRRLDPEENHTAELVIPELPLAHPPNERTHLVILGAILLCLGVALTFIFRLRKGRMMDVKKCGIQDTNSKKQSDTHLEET

COc1cc(C(=O)N2CCc3c(-c4ccccc4)cccc32)ccc1CNCCO was tested, and the IC50 was 161 nM.

For O=C(c1ccc(CNCCO)cc1)N1CCc2c(-c3cccc4[nH]ccc34)cccc21, the IC50 was 635 nM.

Compound O=C(c1ccc(CNCCO)cc1)N1CCc2c(-c3ccc4nccnc4c3)cccc21 has an IC50 of over 5000 nM.

N#Cc1cncc(COc2cc(C(=O)N3CCc4c(-c5ccccc5)cccc43)ccc2CN2CC[C@H](C(=O)O)C2)c1 gave an IC50 of 53.2 nM.

N#Cc1cncc(COc2cc(C(=O)N3CCc4c(-c5ccccc5)cccc43)ccc2CN2CC[C@H](CO)C2)c1 showed an IC50 of 128 nM.

For N#Cc1cncc(COc2cc(C(=O)N3CCc4c(-c5ccccc5)cccc43)ccc2CN2CCC[C@H]2C(=O)O)c1, the IC50 was 626 nM.

Work on N#Cc1cncc(COc2cc(C(=O)N3CCc4c(-c5ccccc5)cccc43)ccc2CNCCO)c1 yielded an IC50 of 87.3 nM.

With CN(CCO)Cc1ccc(C(=O)N2CCc3c(-c4ccccc4)cccc32)cc1OCc1cncc(C#N)c1 the IC50 was 60.1 nM.

With O=C(c1ccc(CNCCO)cc1)N1CCc2c(-c3cnc4[nH]ccc4c3)cccc21 the IC50 was 876 nM.

N#Cc1cc(COc2cc(C(=O)N3CCc4c(-c5ccccc5)cccc43)ccc2CNCCO)ccn1 showed an IC50 of 105 nM.

With COCCNCc1ccc(C(=O)N2CCc3c(-c4ccccc4)cccc32)cc1OCc1cncc(C#N)c1 the IC50 was 251 nM.

In the case of CC(=O)NCCNCc1ccc(C(=O)N2CCc3c(-c4ccccc4)cccc32)cc1OCc1ccnc(C#N)c1, the IC50 is reported as 308 nM.

Work on CC(=O)NCCNCc1ccc(S(=O)(=O)N2CCc3c(-c4ccccc4)cccc32)cc1 yielded an IC50 of over 5000 nM.

Work on CC(C)(CO)NCc1ccc(C(=O)N2CCc3c(-c4ccccc4)cccc32)cc1OCc1cncc(C#N)c1 yielded an IC50 of 116 nM.

COc1cccc(-c2cccc3c2CCN3C(=O)c2ccc(CNCCO)cc2)n1 was tested, and the IC50 was over 5000 nM.

O=C(c1ccc(CNCCO)cc1)N1CCc2c(-c3ccc4ocnc4c3)cccc21 showed an IC50 of 192 nM.

O=C(c1ccc(CNCCO)cc1)N1CCc2c(-c3ccncc3)cccc21 showed an IC50 of over 5000 nM.

In the case of N#Cc1cncc(COc2cc(C(=O)N3CCc4c(-c5ccccc5)cccc43)ccc2CN2CC[C@@H](CO)C2)c1, the IC50 is reported as 132 nM.

For N#Cc1cncc(COc2cc(C(=O)N3CCc4c(-c5ccccc5)cccc43)ccc2CN2CC[C@@H](O)C2)c1, the IC50 was 124 nM.

With N#Cc1cncc(COc2cc(C(=O)N3CCc4c(-c5ccccc5)cccc43)ccc2CNC2CCOCC2)c1 the IC50 was 378 nM.

Work on N#Cc1cncc(COc2cc(C(=O)N3CCc4c(-c5ccccc5)cccc43)ccc2CN2CC[C@H](O)C2)c1 yielded an IC50 of 74.6 nM.

With CC(=O)NCCNCc1ccc(C(=O)N2CCc3c(-c4ccccc4)cccc32)cc1OCc1cncc(C#N)c1 the IC50 was 154 nM.

In the case of CC(C)(CO)NCc1ccc(S(=O)(=O)N2CCc3c(-c4ccccc4)cccc32)cc1, the IC50 is reported as over 5000 nM.

For CC(C)(CO)NCc1ccc(C(=O)N2CCc3c(-c4ccccc4)cccc32)cc1OCc1ccnc(C#N)c1, the IC50 was 229 nM.
